SMILES strings stand for the structures.

Results on 32 molecules are retold here after ChEMBL document CHEMBL4699399, “Discovery of isoxazolyl-based inhibitors of Plasmodium falciparum cGMP-dependent protein kinase” (RSC Med Chem, 2020).

Tested on in the first data set: not listed separately
The data set is described as follows: Inhibition of human PKG measured up to 10 uM.
Settings: not given; call rule not given here
Turning to `Cc1onc(-c2cccc(Cl)c2)c1-c1ccnc(N[C@@H]2CCN(C(=O)c3cnoc3)C2)n1`, the “inhibition (INH)” value is “Not Active”.

On to `CCN(CC)Cc1onc(-c2ccccc2)c1-c1ccnc(N[C@@H]2CCN(C(=O)c3cnoc3)C2)n1`, for which the “inhibition (INH)” value is on record as “Not Active”.

In another data set the test system is Plasmodium falciparum. Nature of the data set: Inhibition of recombinant Plasmodium falciparum PKG using FAM-PKAtide as substrate at 10 uM preincubated for 15 mins followed by substrate addition and measured after 1 hr by IMAP fluorescence polarization assay relative to control. The settings on record: time 75.0 min. (Fluorescence polarisation rises when a labelled molecule tumbles more slowly, as on binding a larger partner.)
Take `O=C(c1cnoc1)N1CC[C@H](Nc2nccc(-c3c(-c4ccccc4)noc3CO)n2)C1`: the inhibition is 60%.

On to `CCN(CC)Cc1onc(-c2cccc(Cl)c2)c1-c1ccnc(N2CCC(C(=O)c3ccsn3)CC2)n1`, for which the inhibition was found to be 46%.

On to `CCN(CC)Cc1onc(-c2cccc(Cl)c2)c1-c1ccnc(N2CCCC(C(=O)c3ccsn3)C2)n1` (racemic), for which the inhibition was found to be 75%.

Turning to `CCN(CC)Cc1onc(-c2cccc(Cl)c2)c1-c1ccnc(N[C@@H]2CCN(Cc3ccn(C)n3)C2)n1`, the inhibition stood at 5%.

As for `CCOC(=O)c1onc(-c2ccccc2)c1-c1ccnc(N[C@@H]2CCN(C(=O)c3cnoc3)C2)n1`, the inhibition worked out at 23%.

Regarding `CCN(CC)Cc1onc(-c2cccc(Cl)c2)c1-c1ccnc(N[C@@H]2CCN(S(=O)(=O)c3cnn(C)c3)C2)n1`, the inhibition came to 40%.

In the case of `CCN(CC)Cc1onc(-c2cccc(Cl)c2)c1-c1ccnc(N2CCCC2CC(=O)c2ccsn2)n1` (racemic), the inhibition is 60%.

For the molecule `CCN(CC)Cc1onc(-c2cccc(Cl)c2)c1-c1ccnc(N[C@@H]2CCN(Cc3cnn(C)c3)C2)n1`, the inhibition was determined as 5%.

Tested on in the next data set: not listed separately
The data set is described as follows: Inhibition of recombinant Plasmodium falciparum PKG using FAM-PKAtide as substrate preincubated for 15 mins followed by substrate addition and measured after 1 hr by IMAP fluorescence polarization assay.
Settings: not given
With `Cc1onc(-c2ccc(Cl)cc2)c1-c1ccnc(N[C@@H]2CCN(C(=O)c3cnoc3)C2)n1`, the IC50 amounted to 2800 nM.

Take `Cc1onc(-c2ccccc2)c1-c1ccnc(N[C@@H]2CCN(C(=O)c3cnoc3)C2)n1`: the IC50 stood at 750 nM.

With `CCN(CC)Cc1onc(-c2cccc(Cl)c2)c1-c1ccnc(N[C@@H]2CCN(C(=O)c3ccn(C)n3)C2)n1`, the IC50 stood at 10 nM.

With `CCN(CC)Cc1onc(-c2cccc(Cl)c2)c1-c1ccnc(N[C@@H]2CCN(C(=O)c3ccsn3)C2)n1`, the IC50 turned out to be 15 nM.

With `CCN(CC)Cc1onc(-c2cccc(Cl)c2)c1-c1ccnc(N2CC(C(=O)c3ccsn3)C2)n1`, the IC50 was 2600 nM.

`CCN(CC)Cc1onc(-c2cccc(Cl)c2)c1-c1ccnc(N[C@@H]2CCN(C(=O)c3ccon3)C2)n1`: the IC50 turned out to be 25 nM.

On to `CCN(CC)Cc1onc(-c2ccccc2F)c1-c1ccnc(N[C@@H]2CCN(C(=O)c3cnoc3)C2)n1`, for which the IC50 amounted to 900 nM.

In the case of `O=C(c1cnoc1)N1CC[C@@H](Nc2nccc(-c3c(-c4ccccc4)noc3CN3CCCC3)n2)C1`, the IC50 amounted to 1400 nM.

With `O=C(c1cnoc1)N1CC[C@@H](Nc2nccc(-c3c(-c4ccccc4)noc3CO)n2)C1`, the IC50 came out at 1000 nM.

On to `Cc1onc(-c2cccc(Cl)c2)c1-c1ccnc(N[C@@H]2CCN(C(=O)c3cnoc3)C2)n1`, for which the IC50 stood at 210 nM.

As for `Cc1onc(-c2ccccc2)c1-c1ccnc(N[C@@H]2CCN(C(=O)c3cccnc3)C2)n1`, the concentration for half-maximal inhibition (IC50) was 1000 nM.

Consider `CCN(CC)Cc1onc(-c2cccc(Cl)c2)c1-c1ccnc(N[C@@H]2CCN(C(=O)c3cnsc3)C2)n1`, for which the IC50 turned out to be 74 nM.

As for `CCN(CC)Cc1onc(-c2cccc(Cl)c2)c1-c1ccnc(N[C@@H]2CCN(C(=O)c3c[nH]cn3)C2)n1`, the IC50 is 47 nM.

Turning to `CCN(CC)Cc1onc(-c2cccc(Cl)c2)c1-c1ccnc(N[C@@H]2CCN(C(=O)c3cnoc3)C2)n1`, the IC50 worked out at 13 nM.

For `CCN(CC)Cc1onc(-c2cccc(Cl)c2)c1-c1ccnc(N[C@@H]2CCN(C(=O)c3cnn(C)c3)C2)n1`, the IC50 is 38 nM.

Take `O=C(c1cnoc1)N1CC[C@@H](Nc2nccc(-c3c(-c4ccccc4)noc3CN3CCOCC3)n2)C1`: the IC50 worked out at 1000 nM.

For the molecule `Cc1onc(-c2ccccc2)c1-c1ccnc(N[C@@H]2CCN(C(=O)c3cnccn3)C2)n1`, the IC50 was 2000 nM.

With `CCN(CC)Cc1onc(-c2ccccc2)c1-c1ccnc(N[C@@H]2CCN(C(=O)c3cnoc3)C2)n1`, the IC50 was 850 nM.

As to `Cc1onc(-c2ccccc2Cl)c1-c1ccnc(N[C@@H]2CCN(C(=O)c3cnoc3)C2)n1`, the IC50 stood at 2100 nM.

Consider `CCN(CC)Cc1onc(-c2cccc(Cl)c2)c1-c1ccnc(N[C@@H]2CCN(C(=O)c3cn[nH]c3)C2)n1`, for which the IC50 was determined as 97 nM.

Regarding `CCN(CC)Cc1onc(-c2ccc(F)cc2)c1-c1ccnc(N[C@@H]2CCN(C(=O)c3cnoc3)C2)n1`, the IC50 came out at 660 nM.

With `CCN(CC)Cc1onc(-c2cccc(F)c2)c1-c1ccnc(N[C@@H]2CCN(C(=O)c3cnoc3)C2)n1`, the IC50 was 360 nM.

In the case of `CCN(CC)Cc1onc(-c2cccc(Cl)c2)c1-c1ccnc(N[C@@H]2CCN(C(=O)c3nc[nH]n3)C2)n1`, the IC50 amounted to 620 nM.

Take `CCN(CC)Cc1onc(-c2cccc(Cl)c2)c1-c1ccnc(N[C@@H]2CCN(C(=O)c3cc[nH]n3)C2)n1`: the IC50 was found to be 120 nM.

As usually defined, the inhibition is how much of the control response was suppressed. A word on the IC50: it is the concentration that inhibits the measured activity by half.
